The results in this text go back to patent US20110269778A1, “NOVEL DIPHENYL PURINE DERIVATIVES USEFUL AS MODULATORS OF NICOTINIC ACETYLCHOLINE RECEPTORS” (NEUROSEARCH A/S, priority 2008, published 2011).

For data set [1], the target named is T1, wild-type nAChR α7 receptors (Homo sapiens, UniProt P36544).
T1 construct: expressed in transfected cells; host or cells: Xenopus laevis oocytes
The data set is described as follows: Positive modulation of wild-type nAChR α7 receptors expressed in Xenopus laevis oocytes, two-electrode voltage clamp. It is filed as cell-based. The note with it: for Emax: maximal modulation of the control response to 100 μM acetylcholine, (test-control)/control×100%, from fitted concentration response curve, read-out: EC50 Imax; for EC50: positive modulation of current induced by 100 μM acetylcholine, oocytes clamped at −60 mV, test compound 0.01-31.6 μM applied 30 s before and during acetylcholine. As to the method: In this example the positive modulation of wild-type nAChR α7 receptors by the compounds of the invention was determined using nAChR α7 receptors heterologously expressed in Xenopus laevis oocytes.
The electrical current through the nAChR α7 channel was measured using conventional two-electrode voltage clamp and nAChR α7 currents were activated by applying pulses of agonist-containing solution onto the nAChR α7 expressing oocyte.
In brief, the oocytes were placed in a recording chambers and continuously super-fused with an Oocyte Ringer (OR) solution containing 90 mM NaCl, 2.5 mM KCl, 2.5 mM CaCl2, 1 mM MgCl2 and 5 mM HEPES (pH adjusted to 7.4). The oocytes were clamped at −60 mV and currents were induced by applying 20 s pulses of 100 μM acetylcholine dissolved in OR. The intervals between the acetylcholine applications were 5 minutes, during which the oocytes were washed with OR. The first three applications were control applications to insure a constant response level of 100 μM acetylcholine. For the subsequent test applications, increasing concentrations (0.01-31.6 μM) of the test compound were applied 30 s before and during the acetylcholine (100 μM) application, which caused a robust increase in the acetylcholine-induced current amplitude.
The positive modulation in the presence of Compound 4 was calculated as (test-control)/control×100% and the concentration response curve for this positive modulation was fitted to the sigmoidal logistic equation: I=Imax/(1+(EC50/[compound])^n), where Imax represents the maximal modulation of the control response, EC50 is the concentration causing a half maximal response, and n is the slope coefficient.
(In two-electrode clamp one electrode senses voltage and the other passes current.)

T1 sequence (P36544 23-502): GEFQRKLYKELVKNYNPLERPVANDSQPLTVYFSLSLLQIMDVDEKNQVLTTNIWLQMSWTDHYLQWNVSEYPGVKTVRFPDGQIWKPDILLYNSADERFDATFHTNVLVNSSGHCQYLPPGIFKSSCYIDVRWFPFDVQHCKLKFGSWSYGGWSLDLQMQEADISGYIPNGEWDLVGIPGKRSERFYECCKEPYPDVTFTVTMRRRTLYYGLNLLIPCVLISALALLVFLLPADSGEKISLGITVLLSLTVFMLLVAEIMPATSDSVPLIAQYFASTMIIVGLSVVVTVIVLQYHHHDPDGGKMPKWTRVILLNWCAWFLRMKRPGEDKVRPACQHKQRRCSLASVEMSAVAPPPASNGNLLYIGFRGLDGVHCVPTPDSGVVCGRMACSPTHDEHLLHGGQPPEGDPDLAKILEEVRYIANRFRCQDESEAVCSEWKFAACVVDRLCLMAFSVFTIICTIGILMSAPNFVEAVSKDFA

Molecule `Oc1ccc(-n2cnc3c(-c4ccc(C(F)(F)F)cc4F)ncnc32)cc1` [Compound 2, 4-[6-(2-Fluoro-4-trifluoromethyl-phenyl)-purin-9-yl]-phenol] returned a melting point of 205.2 to 206.4 °C. Also, in data set [1], the Emax stood at 120% and the EC50 was found to be 5.8 µM.
As to `Oc1ccc(-n2nnc3c(-c4ccc(C(F)(F)F)cc4F)ncnc32)cc1` [Compound 7, 4-[7-(2-Fluoro-4-trifluoromethyl-phenyl)-[1,2,3]triazolo[4,5-d]pyrimidin-3-yl]-phenol], the melting point lay in the range of 210.2 to 211.8 °C. Moreover, in data set [1], the Emax came to 28% and the EC50 was found to be 5.9 µM.
`COc1ccc(-n2c(=O)[nH]c3c(-c4ccc(C(F)(F)F)cc4F)ncnc32)cc1` [Compound 4, 6-(2-Fluoro-4-trifluoromethyl-phenyl)-9-(4-methoxy-phenyl)-7,9-dihydro-purin-8-one] registered a melting point of 295.9 to 297.2 °C. Further, in data set [1], the Emax stood at 1.6% and a half-maximal response (EC50) required 3.2 µM.
Molecule `COc1ccc(-n2cnc3c(-c4ccc(C(F)(F)F)cc4F)ncnc32)cc1` [Compound 1, 6-(2-Fluoro-4-trifluoromethyl-phenyl)-9-(4-methoxy-phenyl)-9H-purine] displayed a melting point of 181.4 to 182.8 °C. Further, in data set [1], the Emax stood at 45% and the EC50 was 1.2 µM.
`O=c1[nH]c2c(-c3ccc(C(F)(F)F)cc3F)ncnc2n1-c1ccc(O)cc1` [Compound 5, 6-(2-Fluoro-4-trifluoromethyl-phenyl)-9-(4-hydroxy-phenyl)-7,9-dihydro-purin-8-one] had a melting point of 276.4 to 277.9 °C. In data set [1], the Emax is 82% and the EC50 is 33 µM.
In the case of `COc1ccc(-n2nnc3c(-c4ccc(C(F)(F)F)cc4F)ncnc32)cc1` [Compound 6, 7-(2-Fluoro-4-trifluoromethyl-phenyl)-3-(4-methoxy-phenyl)-3H-[1,2,3]-triazolo[4,5-d]pyrimidine], the melting point lay within 175.4 to 176.8 °C. Further, in data set [1], the Emax was determined as 7.3%.
`NS(=O)(=O)c1ccc(-n2cnc3c(-c4ccc(C(F)(F)F)cc4F)ncnc32)cc1` [Compound 3, 4-[6-(2-Fluoro-4-trifluoromethyl-phenyl)-purin-9-yl]-benzenesulfonamide] showed a melting point of 243.8 to 245 °C. Moreover, in data set [1], the Emax came to 44% and the EC50 was 9.5 µM.

A word on the melting point: it is the temperature, or range, at which the solid turns liquid. What is called EC50 is the concentration at which the effect is half-maximal. Higher therefore signals lower potency in that assay.
